Experimental data reported in patent US5622960A, “Topoisomerase II inhibitors and therapeutic uses therefor” (The United States of America as represented by the …, priority 1992, dated 1997).
Entries after “also recorded” stand apart in the source; their conditions may differ.

Tests used:
[1] = system: top 2 (HL-60 nuclear extract); experiment: Induction of DNA double-strand breaks in SV40 DNA in presence of HL-60 nuclear extract; type: biochemical
Procedure: (§1) Chemicals, and enzymes: Azatoxin and its derivatives, as well as the demethyldesoxypodophyllotoxin (DMDP) and demethylepipodophyllotoxin (DMEP), were synthesized by conventional methods. The compounds m-AMSA and mitoxantrone were obtained from the Drug Synthesis and Chemistry Branch, National Cancer Institute, Bethesda, Md. The compounds VP-16 and VM-26 were obtained from Bristol-Myers Company (Wallingford, Conn.). Drug stock solutions were made in dimethylsulfoxide at 10 mM. Further dilutions were made in distilled water. Various other reagents, including simian virus 40 (SV40) and c-myc human DNA inserts in plasmid pBR322, restriction endonucleases, DNA topoisomerase I, T4 polynucleotide kinase, calf intestine phosphatase, agarose and polyacrylamide/bis, were purchased from Bethesda Research Laboratories (Gaithersburg, Md.), from the American Type Culture Collection (Rockville, Md.) or from New England Biolabs (Beverly, Mass.). [Gamma-^32 P]ATP was purchased from New England Nuclear Research Products (Boston, Mass.).
Preparation of end-labeled DNA fragments: DNA fragments were 5' end-labeled as described, for example, by Fesen and Pommier (1989), supra. Briefly, native DNA was first linearized with a restriction enzyme, then the 5'-DNA termini were dephosphorylated with calf alkaline phosphatase and labeled with [gamma-^32 P]ATP using T4 polynucleotide kinase. For double-strand breaks assays using HL-60 nuclear extract, SV40 DNA was digested with BclI endonuclease and labeled at both DNA termini. For sequencing experiments, SV40 and c-myc DNAs were first 5'-end labeled at the XhoII and XbaI restriction sites, respectively. Then, in order to generate uniquely 5'-end-labeled fragments, labeled DNA was subjected to a second enzyme digestion, PflMI for SV40, and EcoRI plus HindIII for c-myc DNA. The resulting DNA fragments were separated by agarose gel electrophoresis and isolated by electroelution. […]
For agarose gel analysis, 3 μl (10×) loading buffer (0.3% bromophenol blue, 16% Ficoll, 10 mM Na2 HPO4) was added to each sample which was then heated at 65° C. for 1-2 minutes before loading into an agarose gel made in (1×) TBE (89 mM Tris, 89 mM boric acid, 2 mM EDTA, pH8), in accordance with Fesen & Pommier (1989), supra. […] The quantification of drug-induced DNA double-strand breaks in the presence of HL-60 nuclear extract was effected as described in the next paragraph.
Radioactive gels were counted in betascope 603 blot analyzer. […] Drug-induced cleavage was expressed as: [formula] where C. and T. are the counts for cleaved and total DNA, respectively, in presence of nuclear extract without drug.
Drug-induced DNA double-strand breaks were measured first in SV40 DNA in the presence of HL-60 nuclear extracts. […]

[2] = target: T1, purified murine leukemia top 2 (Mus musculus, UniProt Q01320); experiment: Sequencing of topoisomerase II cleavage sites (SV40 and c-myc DNA); type: biochemical; conditions: for top 2 cleavage sites induced (number/amount): SV40 and c-myc DNA, purified murine top 2
T1 construct: single 170 kDa band on silver-stained SDS-PAGE
Procedure: as §1
(§2) DNA topoisomerase II was purified from mouse leukemia L1210 cell nuclei as described, for example, by Pommier et al. (1985), supra, and was stored at -70° C. in 40% (v/v) glycerol, 0.35 M NaCl, 5 mM MgCl2, 1 mM KH2 PO4, 0.2 mM dithiothreitol and 0.1 mM phenylmethanesulfonyl fluoride (pH 6.4). The purified enzyme yielded a single 170 kDa band after silver staining of SDS-polyacrylamide gels, in accordance with the description of Pommier et al., Cancer Res. 46: 3075-81 (1986).
Preparation of end-labeled DNA fragments: DNA fragments were 5' end-labeled as described, for example, by Fesen and Pommier (1989), supra. Briefly, native DNA was first linearized with a restriction enzyme, then the 5'-DNA termini were dephosphorylated with calf alkaline phosphatase and labeled with [gamma-^32 P]ATP using T4 polynucleotide kinase. For double-strand breaks assays using HL-60 nuclear extract, SV40 DNA was digested with BclI endonuclease and labeled at both DNA termini. For sequencing experiments, SV40 and c-myc DNAs were first 5'-end labeled at the XhoII and XbaI restriction sites, respectively. Then, in order to generate uniquely 5'-end-labeled fragments, labeled DNA was subjected to a second enzyme digestion, PflMI for SV40, and EcoRI plus HindIII for c-myc DNA. The resulting DNA fragments were separated by agarose gel electrophoresis and isolated by electroelution. Purification by phenol-chloroform extraction and ethanol precipitation were included between each step and at the end of the labeling procedures, pursuant to Pommier et al., J. Molec. Biol. 222: 909-24 (1991).
Topoisomerase II-induced DNA cleavage reactions: DNA fragments were equilibrated with or without drug in 10 mM Tris-HCl, pH 7.5, 50 mM KCl, 5 mM MgCl2 0.1 mM EDTA, 1 mM ATP and 15 μg/ml bovine serum albumin for 5 minutes before addition of purified topoisomerase II (40 to 70 ng) or HL-60 nuclear extract in 20 μl final reaction volume. Reactions were stopped by adding sodium dodecyl sulfate (SDS) to a final concentration of 1% and proteinase K to 400 μg/ml, followed by incubation for 1 hour at 40° C.
For DNA sequence analysis, samples were precipitated with ethanol and resuspended in 2.5 μl loading buffer (80% formamide, 10 mM NaOH, 1 mM EDTA, 0.1% xylene cyanol and 0.1% bromophenol blue). Samples were heated to 90° C. and immediately loaded into DNA sequencing gels (6% polyacrylamide; 19:1, acrylamide:bis) containing 7M urea in (1×) TBE buffer. Electrophoresis was at 2500 V (60 W) for 4 hours. Gels were dried on 3M paper sheets and autoradiographed with Kodak XAR-2 film. See Pommier et al. (1991), supra.
Induction of top 2 cleavage by azatoxin was tested directly with the use of purified murine leukemia top 2. […] Sites of cleavage were also determined by DNA sequencing in the 5' flank of c-myc first intron.

[3] = system: top 2; experiment: Inhibition of top 2-mediated relaxation of native SV40 DNA; type: biochemical, mouse
Procedure: as §2
Two different assays were conducted to illuminate the nature of azatoxin's effects vis-a-vis DNA relaxation. To study the inhibition of top 2 catalytic activity, topoisomerase reactions were performed with 0.4 μg native SV40 DNA in 30 μl reaction buffer for 30 minutes at 37° C. and stopped by adding SDS to a final concentration of 1% and proteinase K to 400 μg/ml, followed by incubation for 1 hour at 42° C., essentially as described by Fesen & Pommier (1989), supra. Agarose gel electrophoresis was performed in 1% gels made in Tris-Acetate-EDTA (TAE) buffer (40 mM Tris-Acetate, pH 7.6, 10 mM Na2 EDTA). Gels were run at 2 V/cm overnight, washed in water and then stained with 1 μM ethidium bromide for 45 minutes. After an additional 45 minutes destaining in 1 mM Mg2 SO4, the DNA was visualized under UV light and photographed with a Polaroid type 57 film.

[4] = system: SV40 DNA; experiment: DNA unwinding (intercalation) assay with excess topoisomerase I; type: biochemical, simian virus 40
Procedure: To assess DNA unwinding, see Pommier et al., Nucleic Acids Res. 15: 6713-31(1987), the DNA was relaxed first by treatment for 15 minutes with top 1 (20 units), after which the test agent was added. These steps were carried out at 37° C. DNA-agent-top 1 mixtures were incubated for an additional 30 minutes and then stopped as described above. Samples were then subjected to agarose gel electrophoresis as described above.
This was also the case for the 2 azatoxin isomers, 8 and 10, and for the demethylepipodophyllotoxins, DMDP and DMEP. Similar results were obtained with supercoiled DNA.

[5] = system: panel of sixty human tumor cells lines; experiment: Growth inhibition / cytotoxicity against NCI panel of sixty human tumor cell lines; type: cell-based
Text: FIG. 1 is a graphical representation of results generated by testing the inhibitory activity of an illustrative compound within the present invention against panel of tumor cell lines which is a standard of the National Cancer Institute Developmental Therapeutics Program [GI50: "50% growth inhibition"; TGI: "[…]"; LC50: "50% lethal concentration"].
See Yang et al., Cancer Res. 45:5872-76 (1985), and Liu (1989), supra, at 361-63. […] Pursuant to the convention of Paull et al., J. Nat'l Cancer Inst. […] See also Monks et al., J. Nat'l Cancer Inst. 83: 757-66 (1991), and Boyd, Principles & Practice of Oncology3:1-12 (1989).
(§3) Thus, azatoxin effectively prevents tubulin polymerization in vitro at concentrations in the range of 1 to 10 μM.

[6] = system: tubulin; experiment: in vitro tubulin polymerization assay; type: biochemical
Procedure: as §3

[7] = system: cells (protein-linked DNA breaks); experiment: protein-linked DNA breaks in cells; type: cell-based; conditions: compared to other top 2 inhibitors

T1 sequence (Q01320 whole entry): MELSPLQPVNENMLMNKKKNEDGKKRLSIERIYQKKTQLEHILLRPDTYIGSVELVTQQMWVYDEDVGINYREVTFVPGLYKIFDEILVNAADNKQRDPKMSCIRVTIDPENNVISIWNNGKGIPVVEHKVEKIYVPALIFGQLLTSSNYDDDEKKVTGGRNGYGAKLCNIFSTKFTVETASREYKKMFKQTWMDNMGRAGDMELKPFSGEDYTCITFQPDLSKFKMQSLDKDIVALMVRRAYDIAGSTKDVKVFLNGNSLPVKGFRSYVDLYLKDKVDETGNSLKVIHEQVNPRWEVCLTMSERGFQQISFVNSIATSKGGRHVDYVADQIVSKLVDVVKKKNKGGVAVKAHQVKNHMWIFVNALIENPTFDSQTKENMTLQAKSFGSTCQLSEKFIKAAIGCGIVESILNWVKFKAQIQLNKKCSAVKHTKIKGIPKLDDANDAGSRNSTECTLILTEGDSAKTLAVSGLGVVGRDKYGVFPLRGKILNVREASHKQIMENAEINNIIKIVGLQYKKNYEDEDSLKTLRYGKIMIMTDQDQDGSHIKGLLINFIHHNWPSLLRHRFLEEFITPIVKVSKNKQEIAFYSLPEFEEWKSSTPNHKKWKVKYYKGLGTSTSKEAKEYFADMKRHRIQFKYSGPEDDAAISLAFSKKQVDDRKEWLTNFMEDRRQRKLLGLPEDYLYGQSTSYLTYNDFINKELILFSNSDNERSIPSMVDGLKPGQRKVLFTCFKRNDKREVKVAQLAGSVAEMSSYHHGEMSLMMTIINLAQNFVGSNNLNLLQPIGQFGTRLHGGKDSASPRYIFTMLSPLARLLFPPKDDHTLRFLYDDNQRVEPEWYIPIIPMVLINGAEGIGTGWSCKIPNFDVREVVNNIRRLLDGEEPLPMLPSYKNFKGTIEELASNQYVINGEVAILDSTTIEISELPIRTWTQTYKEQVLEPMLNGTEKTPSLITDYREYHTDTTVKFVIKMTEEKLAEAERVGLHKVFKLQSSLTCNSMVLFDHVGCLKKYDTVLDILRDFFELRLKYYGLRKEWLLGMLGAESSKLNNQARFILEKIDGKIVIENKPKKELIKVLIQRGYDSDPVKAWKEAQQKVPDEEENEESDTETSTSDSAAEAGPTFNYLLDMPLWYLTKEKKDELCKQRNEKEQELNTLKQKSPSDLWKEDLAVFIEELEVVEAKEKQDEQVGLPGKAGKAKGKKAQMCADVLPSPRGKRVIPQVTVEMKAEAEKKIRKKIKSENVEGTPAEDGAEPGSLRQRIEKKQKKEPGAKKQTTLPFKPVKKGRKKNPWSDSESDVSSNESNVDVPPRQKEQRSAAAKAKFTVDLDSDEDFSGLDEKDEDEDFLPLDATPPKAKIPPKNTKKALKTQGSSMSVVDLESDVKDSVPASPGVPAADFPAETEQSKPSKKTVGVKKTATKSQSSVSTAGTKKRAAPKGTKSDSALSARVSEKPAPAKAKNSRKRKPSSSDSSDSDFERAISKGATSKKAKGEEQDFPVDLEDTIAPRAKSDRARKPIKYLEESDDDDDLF

SMILES: COc1cc([C@@H]2c3[nH]c4ccccc4c3C[C@H]3COC(=O)N32)cc(OC)c1O [Azatoxin, 5R, 11aS-3-One-5,4,11,11a-tetrahydro-5-(3,5-dimethoxy-4-hydroxyphenyl) -1H, 6H-oxazolo[3', 4': 1,6]pyrido[3,4-b]indole]
- DNA cleavage potency (in words) ([1]; SV40 DNA, HL-60 nuclear extract, compared to VP-16): comparable to that of VP-16
- cleavage above 10 μM, concentration dependence ([1]; above 10 μM): cleavage occurred at many sites and was proportional to the logarithm of azatoxin concentration
- suppression of DNA cleavage at high drug concentrations ([1]; up to 1 mM): not suppressed at high drug concentrations (up to 1 mM)
- top 2 cleavage potency (in words) [2]: potent top 2 inhibitor
- top 2 cleavage sites induced (number/amount) [2]: induced many cleavage sites both in the SV40 and the c-myc DNA fragments
- top 2 cleavage sites induced (number/amount) ([2]; listed as azatoxin): induced more cleavage sites than mitoxantrone, m-AMSA, VM-26 or VP-16; also recorded: induces the largest number of top 2 cleavage sites both in SV40 and c-myc DNA
- top 2 cleavage pattern ([2]; compared with other top 2 inhibitors): cleavage pattern differing from those induced by other top 2 inhibitors
- production of linear / nicked DNA [3]: produce a substantial amount of linear DNA without significant increased of nicked DNA
- inhibition of top 2-mediated relaxation ([3]; 30 minutes, 37° C.): inhibits top 2-mediated relaxation of native SV40 DNA
- DNA unwinding / intercalation conclusion [4]: does not intercalate into DNA
- DNA unwinding ([4]; relaxed SV40 DNA, excess topoisomerase I, concentrations as high as 1 mM): did not induce detectable DNA unwinding even at drug concentrations as high as 1 mM
- cytotoxicity to tumor cells (in words) ([5]; FIG. 1 means graph): cytotoxicity of aratoxin to cells associated with disseminated cancers (leukemias) as well as several consolidated cancers (non-small cell lung and colon)
- growth inhibition of human tumor cell lines (in words) ([5]; sixty cell lines: leukemia, melanoma, lung, colon, kidney, ovary, CNS): significant inhibitory activity
- tubulin inhibition (in words) [6]: potent tubulin inhibitor
- inducing protein-linked DNA breaks in cells [7]: very active in inducing protein-linked DNA breaks in cells
